The source of these data is publication PMC5877551, “Structure-Activity Relationships of Thiazolyl Resorcinols, Potent and Selective Inhibitors of Human Tyrosinase” (International Journal of Molecular Sciences, 2018).

Assay [1] concerns the target T1, human tyrosinase (hTyr) (Homo sapiens, UniProt P14679).
T1 sequence (P14679 19-476 limits assumed): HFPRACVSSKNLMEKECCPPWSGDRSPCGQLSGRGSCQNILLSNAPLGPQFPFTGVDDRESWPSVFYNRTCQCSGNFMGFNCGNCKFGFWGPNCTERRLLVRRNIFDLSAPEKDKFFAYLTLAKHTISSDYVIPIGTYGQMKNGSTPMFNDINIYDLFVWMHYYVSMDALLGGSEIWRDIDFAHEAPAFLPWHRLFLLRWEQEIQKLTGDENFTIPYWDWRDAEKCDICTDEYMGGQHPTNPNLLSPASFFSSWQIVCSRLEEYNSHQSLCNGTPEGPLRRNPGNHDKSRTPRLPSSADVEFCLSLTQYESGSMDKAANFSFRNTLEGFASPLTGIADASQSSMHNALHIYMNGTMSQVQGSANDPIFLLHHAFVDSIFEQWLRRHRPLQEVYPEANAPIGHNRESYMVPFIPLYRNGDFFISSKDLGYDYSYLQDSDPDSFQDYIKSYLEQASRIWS
Briefly: L-Dopa oxidase activity of hTyr, dose-response profiles (MBTH assay). The format is biochemical. Also on record: A truncated, His-tagged form of hTyr (hTyr-DHis) was expressed in HEK 293 cells; His tag; made in house; host or cells: HEK 293 cells. Particulars: for EC50: dopa oxidase activity of hTyr, 1 mM L-Dopa, phosphate buffer pH 7.0, 37 °C, values above 3 mM given as >3000; for inhibition of hTyr, result in words: comparison of EC50 values; for factor by which inhibitory activity is impaired when thiazole is replaced by another ring: versus the corresponding thiazole compound (W547, W548). On the procedure:
A truncated, His-tagged form of hTyr (hTyr-DHis) was expressed in HEK 293 cells and purified by metal affinity chromatography on Ni^2+-Sepharose as described by Cordes et al..
The L-Dopa oxidase activity of hTyr was assayed by a modification of the method of Winder and Harris. In this assay, the reaction product, L-dopaquinone, is trapped by MBTH (3-methyl-2-benzothiazoline hydrazone) to yield a stable pink dye that can be quantified at 490 nm. Reaction mixtures in 100 mM phosphate buffer, pH 7.0, were set up in microtiter plates together with appropriate blanks to account for nonenzymatic oxidation of substrate and product. After thermal equilibration at 37 °C for 10 min, the reactions were started by adding enzyme and monitored for 10–20 min at 490 nm. Absorption values were read at 15 s intervals and digitally stored for later analysis. Dose-response curves were obtained by testing various concentrations of each inhibitor in triplicate at a fixed substrate (L-Dopa) concentration of 1 mM.

For assay [2], the target named is T1, human tyrosinase (hTyr). Particulars: in vitro; cited from earlier work.

One may read the EC50 as the concentration needed to bring the measured effect to its halfway point. A high value points to a need for much substance.

Molecule `Oc1ccc(-c2csc(Nc3ncccn3)n2)cc1` [W452] showed an EC50 on human tyrosinase (hTyr) [1] of 19 ± 1 µM.
On to `OC[C@H]1O[C@@H](Oc2ccc(O)cc2)[C@H](O)[C@@H](O)[C@@H]1O` [arbutin], for which the “hTyr inhibition compared with thiazolyl resorcinols, in words” value at human tyrosinase (hTyr) [2] is given as “clearly inferior to thiazolyl resorcinols”.
As for `Oc1ccc(-c2csc(Nc3ncccn3)n2)c(O)c1` [W311], on human tyrosinase (hTyr) [1], the “inhibition of hTyr, result in words” value is on record as “mediates efficient inhibition” and a half-maximal effect (EC50) was put at 3.2 ± 0.1 µM.
The like results for `O=C(NC1CCCCC1)c1csc(-c2ccc(O)cc2O)n1` [W701] were, in that order, “abolishes activity” and over 3000 µM.
For the molecule `O=C(Nc1cccc(-c2ccc(O)cc2O)c1)C1CCCCC1` [W632], at human tyrosinase (hTyr) [1], the EC50 was over 3000 µM and the “factor by which inhibitory activity is impaired when thiazole is replaced by another ring” value was “at least 200”.
For the molecule `OCc1ccc(Nc2nc(-c3ccc(O)cc3O)cs2)cc1` [W693], on human tyrosinase (hTyr) [1], the half-maximal effective concentration (EC50) came to 5.7 ± 0.2 µM.
In the case of `CC(C)(O)c1ccc(C(=O)Nc2nc(-c3ccc(O)cc3O)cs2)cc1` [W680], the EC50 at human tyrosinase (hTyr) [1] came out at 3.2 ± 0.2 µM.
Molecule `CCCCc1ccc(O)cc1O` [W039, 4-butylresorcinol, reference compound] displayed a concentration giving a half-maximal response (EC50) on human tyrosinase (hTyr) [1] of 21 ± 4 µM.
On to `CN(C(=O)C1CCCCC1)c1nc(-c2ccc(O)cc2O)cs1` [W605], for which, at human tyrosinase (hTyr) [1], the “inhibition of hTyr, result in words” value was “strongly” and the EC50 amounted to 1400 ± 160 µM.
`CC(=O)Nc1nc(-c2ccc(O)cc2O)c[nH]1` [W633]: on human tyrosinase (hTyr) [1], it took 750 ± 60 µM to reach a half-maximal effect (EC50) and the “factor by which inhibitory activity is impaired when thiazole is replaced by another ring” value was “at least 200”.
As for `Oc1ccc(-c2csc(NCCc3ccccc3)n2)c(O)c1` [W496], on human tyrosinase (hTyr) [1], the “inhibition of hTyr, result in words” value is “markedly impair inhibition” and the EC50 came to 140 ± 6 µM.
For the molecule `CCCCCCNc1nc(-c2ccc(O)cc2O)cs1` [W688], a half-maximal effect at human tyrosinase (hTyr) [1] (EC50) was put at 60 ± 2 µM.
The same measure, in the same setting: next, `CC(C)C(=O)Nc1nc(-c2ccc(O)cc2O)cs1` [W630, Thiamidol]: 1.1 ± 0.1 µM.
`CC(=O)Nc1nc(-c2ccc(O)cc2O)cs1` [W547]: the response at human tyrosinase (hTyr) [1] was half-maximal at 3.2 ± 0.6 µM (EC50).
For the molecule `CC(C)(C)c1ccc(C(=O)Nc2nc(-c3ccc(O)cc3O)cs2)cc1` [W669], at human tyrosinase (hTyr) [1], the “inhibition of hTyr, result in words” value is given as “markedly impair inhibition” and the EC50 came out at 81 ± 5 µM.
For `CN(c1nc(-c2ccc(O)cc2O)cs1)C1CCCCC1` [W646], in that order: “only moderately reduced inhibitory activity” and 40 ± 2 µM.
On human tyrosinase (hTyr) [1], `CCC(=O)Nc1nc(-c2ccc(O)cc2F)cs1` [W480] returned an EC50 of over 3000 µM.
On the same count and under the same terms, next, `CCCNc1nc(-c2ccc(O)cc2O)cs1` [W538]: 5.6 ± 1.4 µM.
On to `CCCCc1ccc(O)c(C)c1O` [W639], for which, on human tyrosinase (hTyr) [1], the “inhibition of hTyr, result in words” value is recorded as “markedly impaired inhibition” and the half-maximal effective concentration (EC50) is 220 ± 10 µM.
As for `O=C(O)c1ccc(Nc2nc(-c3ccc(O)cc3O)cs2)cc1` [W529], the midpoint of the response at human tyrosinase (hTyr) [1], the EC50, lay at 2.6 ± 0.1 µM.
`CC(C)Nc1nc(-c2ccc(O)cc2O)cs1` [W533] yielded an EC50 at human tyrosinase (hTyr) [1] of 6.2 ± 0.2 µM.
Same read-out and setting: the result for `Oc1ccccc1-c1csc(Nc2ncccn2)n1` [W539] reads over 3000 µM; that for `Nc1nc(-c2ccc(O)cc2O)cs1` [W495, 4-(2-amino-1,3-thiazol-4-yl) resorcinol], 51 ± 2 µM.
Same read-out and setting: next, `Oc1ccc(-c2csc(NC3CCCCC3)n2)c(O)c1` [W694]: 16 ± 1 µM.
As to `Cc1cc(C)cc(Nc2nc(-c3ccc(O)cc3O)cs2)c1` [W537], at human tyrosinase (hTyr) [1], the “inhibition of hTyr, result in words” value is reported as “markedly impair inhibition” and a half-maximal response (EC50) required 160 ± 2 µM.
Consider `Oc1ccc(-c2csc(Nc3ccccc3)n2)c(O)c1` [W367], for which the response on human tyrosinase (hTyr) [1] was half-maximal at 10 ± 1 µM (EC50).
Still for that read-out and setting: next, `CCCC(=O)Nc1nc(-c2ccc(O)cc2O)cs1` [W577]: 3.5 ± 0.5 µM.
As for `CCCC(=O)Nc1nc(-c2cc(CCC)c(O)cc2O)cs1` [W681], on human tyrosinase (hTyr) [1], the “inhibition of hTyr, result in words” value is “abolished inhibition altogether” and the EC50 was over 3000 µM.
The molecule `CC(C)(C)C(=O)Nc1nc(-c2ccc(O)cc2O)cs1` [W687] came in with an EC50 on human tyrosinase (hTyr) [1] of 1.4 ± 0.1 µM.
Still for that read-out and setting: next, `OCCCCCCNc1nc(-c2ccc(O)cc2O)cs1` [W692]: 6.9 ± 0.2 µM.
For the molecule `OCCc1ccc(O)cc1O` [W785], on human tyrosinase (hTyr) [1], the “inhibition of hTyr, result in words” value is on record as “markedly impaired inhibition” and a half-maximal response (EC50) required 560 ± 90 µM.
On human tyrosinase (hTyr) [1], `O=C(Nc1nc(-c2ccc(O)cc2O)cs1)c1ccccc1` [W498] returned an EC50 of 2.5 ± 0.1 µM.
Turning to `Cc1sc(NC(=O)C2CCCCC2)nc1-c1ccc(O)cc1O` [W625], on human tyrosinase (hTyr) [1], the “inhibition of hTyr, result in words” value was “abolished inhibition altogether” and the EC50 was over 3000 µM.
Molecule `CC(C)(C)Nc1nc(-c2ccc(O)cc2O)cs1` [W534] had an EC50 at human tyrosinase (hTyr) [1] of 25 ± 1 µM.
Same read-out and setting: the result for `O=C(O)c1ccc(Nc2nc(-c3ccc(O)cc3O)cs2)cc1O` [W570] reads 3.5 ± 0.1 µM.
The molecule `Oc1cccc(O)c1` [W089, resorcinol] yielded an EC50 on human tyrosinase (hTyr) [1] of over 3000 µM.
At human tyrosinase (hTyr) [1], `CCCCCCC(=O)Nc1nc(-c2ccc(O)cc2O)cs1` [W695] returned an EC50 of 15 ± 1 µM.
The same measure, in the same setting: next, `CNc1nc(-c2ccc(O)cc2O)cs1` [W366]: 33 ± 1 µM.
`Oc1ccc(O)cc1` [hydroquinone]: at human tyrosinase (hTyr) [2], the “hTyr inhibition compared with thiazolyl resorcinols, in words” value was “clearly inferior to thiazolyl resorcinols”.
Molecule `O=C(Nc1nc(-c2ccc(O)cc2O)cs1)c1ccc(CO)cc1` [W619] yielded an EC50 at human tyrosinase (hTyr) [1] of 1.6 ± 0.4 µM.
The same measure, in the same setting: the result for `Oc1ccc(Nc2nc(-c3ccc(O)cc3O)cs2)cc1` [W542] reads 9.8 ± 0.3 µM.
In the case of `O=C(Nc1nc(-c2ccc(O)cc2O)cs1)C1CCCCC1` [W548], a half-maximal response at human tyrosinase (hTyr) [1] (EC50) required 4.6 ± 0.2 µM.
The same measure, in the same setting: next, `CCCCCCc1ccc(O)cc1O` [W072, 4-hexylresorcinol, reference compound]: 93 ± 21 µM; `CCCNc1nc(-c2cc(O)cc(O)c2)cs1` [W624]: over 3000 µM.
Still for that read-out and setting: next, `O=C(Cc1ccc(CO)cc1)Nc1nc(-c2ccc(O)cc2O)cs1` [W696]: 6.5 ± 0.2 µM; `Oc1cccc(-c2csc(Nc3ncccn3)n2)c1O` [W568]: over 3000 µM.
For `O=C(NC1CCCCC1)c1nc(-c2ccc(O)cc2O)cs1` [W607], at human tyrosinase (hTyr) [1], the “inhibition of hTyr, result in words” value is “only moderately increases EC50” and the EC50 stood at 56 ± 3 µM.
